According to PubChem BioAssay (NCI):
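96-well plates; 48 h exposure; 5 concentrations. Endpoints by linear interpolation between flanking doses. Not reached: highest tested concentration assigned. The concentration for 50% growth inhibition is given as GI50. The concentration for full growth arrest is given as TGI.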

Assays:
Assay in all cases: NCI anticancer screen, dose series, 48 h
OVCAR-4 ovarian = test system: OVCAR-4 ovarian
A549 NSCLC = test system: A549 NSCLC
IGROV1 ovarian = test system: IGROV1 ovarian
NCI/ADR-RES ovarian = test system: NCI/ADR-RES ovarian
786-0 renal = test system: 786-0 renal
UACC-62 melanoma = test system: UACC-62 melanoma
UACC-257 melanoma = test system: UACC-257 melanoma
HCT-15 colon = test system: HCT-15 colon
SK-MEL-2 melanoma = test system: SK-MEL-2 melanoma
SR leukemia = test system: SR leukemia

Compound | GI50 (OVCAR-4 ovarian) [µM] | TGI (OVCAR-4 ovarian) [µM] | GI50 (A549 NSCLC) [µM] | TGI (A549 NSCLC) [µM] | GI50 (IGROV1 ovarian) [µM] | TGI (IGROV1 ovarian) [µM] | GI50 (NCI/ADR-RES ovarian) [µM] | TGI (NCI/ADR-RES ovarian) [µM] | GI50 (786-0 renal) [µM] | TGI (786-0 renal) [µM] | GI50 (UACC-62 melanoma) [µM] | TGI (UACC-62 melanoma) [µM] | GI50 (UACC-257 melanoma) [µM] | TGI (UACC-257 melanoma) [µM] | GI50 (HCT-15 colon) [µM] | TGI (HCT-15 colon) [µM] | GI50 (SK-MEL-2 melanoma) [µM] | TGI (SK-MEL-2 melanoma) [µM] | GI50 (SR leukemia) [µM] | TGI (SR leukemia) [µM]
COc1ccc(C(=O)CC(Cl)=C(Cl)Cl)cc1 | 19.8 | 56.1 | > 100 | > 100 | 28.3 | 75.9 | 25.2 | 59.4 | 21.7 | 44.7 | 21.7 | 49.9 | 34.4 | > 100 | 28 | 97.4 | 44.4 | > 100 |  | 
COc1cc2c(c(OC)c1OC)-c1c(c3ccc([N+](=O)[O-])cc3c(=O)n1CCCN=[N+]=[N-])C2=O | 19.4 | 60.9 | 0.36 | > 100 | 0.949 | 33.3 | 45.3 | > 100 | 15.4 | 43.8 | 32.5 | > 100 | 0.0793 | 11.9 | 44.6 | > 100 | 2.49 | 22.9 |  | 
Cc1ccc(S(=O)(=O)c2ccccn2)cc1 |  | > 100 |  | > 100 |  | > 100 |  |  |  | > 100 |  | > 100 |  | > 100 |  | > 100 |  | > 100 |  | 
CC1CCCC2(O1)OC1CC(=O)OC1C1=C2C(=O)c2ccccc2C1=O (stereo not given) |  | 3.83 |  | 35.5 |  | 6.87 |  |  |  | 3.85 |  | 5.1 |  | 3.95 |  | 8.04 |  | 6.11 |  | 
C[N+](C)(C)CC(=O)N/N=C(\C(=O)Nc1ccc(Cl)cc1)C1C(=O)N(c2ccccc2)N=C1N (stereo not given) |  | > 100 |  | > 100 |  | > 100 |  |  |  | > 100 |  | > 100 |  | > 100 |  | > 100 |  | > 100 |  | 
Nc1nc(N)c2nn(-c3ccc(C(=O)O)cc3)nc2n1 |  | > 100 |  | > 100 |  | > 100 |  | > 100 |  | > 100 |  | > 100 |  | > 100 |  | > 100 |  | > 100 |  | 
Cc1nc2c(=O)n(C)c(=O)nc-2n(-c2ccc(Cl)cc2)c1C |  | 84.4 |  | > 100 |  | > 100 |  |  |  | > 100 |  | > 100 |  | > 100 |  | > 100 |  | > 100 |  | 
Oc1ccc(-c2nc(-c3ccc4oc5ccc(-c6[nH]c(-c7ccc(O)cc7)nc6-c6ccccc6)cc5c4c3)c(-c3ccccc3)[nH]2)cc1 | 18 | 96.9 | 4.26 | 25.5 | 4.54 | 96.6 | 16 | > 100 | 5.75 | 29.8 | 14.7 | 46.8 | 10.3 | 33.6 | 3.68 | 29.1 |  |  | 1.98 | 5.17
Cc1ccc(CCNC(=S)SCC(NC(=O)CCC(N)C(=O)O)C(=O)NCC(=O)O)cc1 (stereo not given) |  | 7.41 |  | 13.4 |  | 4.77 |  |  |  | 1.6 |  | 3.08 |  | 4.47 |  | 3.72 |  | 1.45 |  | 5.91
COc1ccc(/C=C(\NC(=O)c2ccccc2)c2nc3ccccc3[nH]2)cc1 |  | > 100 |  | > 100 |  | > 100 |  |  |  | > 100 |  | > 100 |  | 58.7 |  | > 100 |  | 48.4 |  | 89.8
CCCCCCCCCCCCOC1C(C(COC2OC(C(O)CO)C3OC(C)(C)OC23)OC(=O)Nc2ccc([N+](=O)[O-])cc2)OC2OC(C)(C)OC21 (stereo not given) | 7.09 | 23.5 | 3.36 | 10.7 | 2.34 | 5.73 | 12.3 | 26.5 | 1.7 | 3.15 | 2.06 | 4.61 | 3.53 | 9.35 | 3.3 | 11.1 | 2.09 | 5.09 |  | 
COc1cc(C2C(C(=O)Nc3ccc(Cl)c(Cl)c3)=C(C)NC(C)=C2C(=O)Nc2ccc(Cl)c(Cl)c2)ccc1O |  | 23 |  | 31.5 |  | 42 |  |  |  | 25.3 |  |  |  | 28.7 |  |  |  | 23.5 |  | 
O=C1c2ccccc2CC1C1(O)C(=O)Nc2c(Cl)cc(Cl)cc21 (stereo not given) |  | > 100 |  | > 100 |  |  |  |  |  | > 100 |  |  |  | > 100 |  | > 100 |  | > 100 |  | 
COc1ccc(N2CCN(CC(=O)N3CCN(c4nnc(-c5ccc(Cl)cc5)c(-c5ccc(Cl)cc5)n4)CC3)CC2)cc1 | 8.8 | > 100 | 11.8 | > 100 | 16 | > 100 | > 100 | > 100 | 10 | > 100 |  |  | 18.9 | > 100 | 6.8 | > 100 | 25.8 | > 100 | 2.56 | 8.65
CC(C)(O)C1CC(=O)C(C)(C2C(O)CC3(C)C4CC=C5C(CCC(O)C5(C)C)C4(C)C(=O)CC23C)O1 (stereo not given) |  | > 100 |  | > 100 |  | > 100 |  |  |  | > 100 |  | > 100 |  | > 100 |  | > 100 |  | > 100 |  | 
N#Cc1c(-c2ccc(Cl)cc2)n([O-])c2ccccc2[n+]1=O | 2.94 | 8.82 | 22.2 | 55.4 | 2.89 | 15.6 | 4.05 | 16.1 | 12.5 | 25 | 17.2 | 33.6 | 18.2 | 34.4 | 13.7 | 37.5 | 37.3 | > 100 |  | 
CCOc1ccccc1Nc1nc(C)c(C(=O)CC(=O)C(=O)Nc2ccccc2)s1 |  | > 100 |  | > 100 |  | > 100 |  |  |  | > 100 |  | > 100 |  | > 100 |  | > 100 |  | > 100 |  | > 100
COc1ccc2nccc(C3OC(=O)N4CCC(=O)CC34)c2c1 (stereo not given) |  | > 100 |  | > 100 |  | > 100 |  |  |  | > 100 |  | > 100 |  | > 100 |  | > 100 |  | > 100 |  | > 100
